Assay results published in ChEMBL document CHEMBL4190297, “Cafestol, a Bioactive Substance in Coffee, Has Antidiabetic Properties in KKAy Mice” (J Nat Prod, 2017).
Activity calls are given as the source filed them. The calls are words filed in the database; no cut-off is given here.

Legend:
[1] = species on record: Mus musculus; assay: Effect on IRS2 mRNA expression levels in liver of KK-Ay diabetic mouse model at 0.4 to 1.1 mg added daily to normal chow pellets for 10 weeks by qRT-PCR analysis; format: functional, organism-based
[2] = species on record: Mus musculus; assay: Effect on Mtor mRNA expression levels in muscle of KK-Ay diabetic mouse model at 0.4 to 1.1 mg added daily to normal chow pellets for 10 weeks by qRT-PCR analysis; format: functional, organism-based
[3] = species on record: Mus musculus; assay: Effect on AMPKalpha2 mRNA expression levels in muscle of KK-Ay diabetic mouse model at 0.4 to 1.1 mg added daily to normal chow pellets for 10 weeks by qRT-PCR analysis; format: functional, organism-based
[4] = species on record: Mus musculus; assay: Induction of 3.3 mM glucose-stimulated insulin secretion in pancreatic islets isolated from KK-Ay diabetic mouse model at 1.1 mg added daily to normal chow pellets for 10 weeks followed by glucose stimulation of isolated pancreatic islets for 1 hr by radioimmunoassay relative to control; format: functional
[5] = species on record: Mus musculus; assay: Effect on GYS2 mRNA expression levels in adipose tissue of KK-Ay diabetic mouse model at 0.4 to 1.1 mg added daily to normal chow pellets for 10 weeks by qRT-PCR analysis; format: functional, organism-based
[6] = species on record: Mus musculus; assay: Effect on JNK1 mRNA expression levels in liver of KK-Ay diabetic mouse model at 0.4 to 1.1 mg added daily to normal chow pellets for 10 weeks by qRT-PCR analysis; format: functional, organism-based
[7] = species on record: Mus musculus; assay: Effect on Pi3K mRNA expression levels in adipose tissue of KK-Ay diabetic mouse model at 0.4 to 1.1 mg added daily to normal chow pellets for 10 weeks by qRT-PCR analysis; format: functional, organism-based
[8] = species on record: Mus musculus; assay: Effect on Sirt1 mRNA expression levels in liver of KK-Ay diabetic mouse model at 0.4 to 1.1 mg added daily to normal chow pellets for 10 weeks by qRT-PCR analysis; format: functional, organism-based
[9] = species on record: Mus musculus; assay: Effect on Pi3K mRNA expression levels in muscle of KK-Ay diabetic mouse model at 0.4 to 1.1 mg added daily to normal chow pellets for 10 weeks by qRT-PCR analysis; format: functional, organism-based
[10] = species on record: Mus musculus; assay: Induction of 3.3 mM glucose-stimulated insulin secretion in pancreatic islets isolated from KK-Ay diabetic mouse model at 0.4 mg added daily to normal chow pellets for 10 weeks followed by glucose stimulation of isolated pancreatic islets for 1 hr by radioimmunoassay relative to control; format: functional
[11] = species on record: Mus musculus; assay: Effect on SOD2 mRNA expression levels in liver of KK-Ay diabetic mouse model at 0.4 to 1.1 mg added daily to normal chow pellets for 10 weeks by qRT-PCR analysis; format: functional, organism-based
[12] = species on record: Mus musculus; assay: Effect on PPARgamma mRNA expression levels in liver of KK-Ay diabetic mouse model at 0.4 to 1.1 mg added daily to normal chow pellets for 10 weeks by qRT-PCR analysis; format: functional, organism-based
[13] = species on record: Mus musculus; assay: Effect on CD36 mRNA expression levels in liver of KK-Ay diabetic mouse model at 0.4 to 1.1 mg added daily to normal chow pellets for 10 weeks by qRT-PCR analysis; format: functional, organism-based
[14] = species on record: Mus musculus; assay: Antidiabetic activity in KK-Ay diabetic mouse model assessed as decrease in GCRG mRNA expression levels in muscle tissue at 0.4 mg added daily to normal chow pellets for 10 weeks by qRT-PCR analysis; format: functional, organism-based
[15] = species on record: Mus musculus; assay: Antidiabetic activity in KK-Ay diabetic mouse model assessed as effect on total cholesterol level at 0.14 to 1.1 mg added daily to normal chow pellets for 10 weeks by colorimetric analysis; format: functional, organism-based
[16] = species on record: Mus musculus; assay: Effect on LXRalpha mRNA expression levels in muscle of KK-Ay diabetic mouse model at 0.4 to 1.1 mg added daily to normal chow pellets for 10 weeks by qRT-PCR analysis; format: functional, organism-based
[17] = species on record: Mus musculus; assay: Antidiabetic activity in KK-Ay diabetic mouse model assessed as non-fasting blood glucose level at 1.1 mg added daily to normal chow pellets for 10 weeks (reference value: 26.2 +/- 1.2 mmol/L); format: functional
[18] = species on record: Mus musculus; assay: Effect on Abca1 mRNA expression levels in liver of KK-Ay diabetic mouse model at 0.4 to 1.1 mg added daily to normal chow pellets for 10 weeks by qRT-PCR analysis; format: functional, organism-based
[19] = species on record: Mus musculus; assay: Antidiabetic activity in KK-Ay diabetic mouse model assessed as non-fasting blood glucose level at 0.4 mg added daily to normal chow pellets for 10 weeks (reference value: 26.2 +/- 1.2 mmol/L); format: functional
[20] = species on record: Mus musculus; assay: Effect on G6PD mRNA expression levels in liver of KK-Ay diabetic mouse model at 0.4 to 1.1 mg added daily to normal chow pellets for 10 weeks by qRT-PCR analysis; format: functional, organism-based
[21] = species on record: Mus musculus; assay: Effect on SOD2 mRNA expression levels in muscle of KK-Ay diabetic mouse model at 0.4 to 1.1 mg added daily to normal chow pellets for 10 weeks by qRT-PCR analysis; format: functional, organism-based
[22] = species on record: Mus musculus; assay: Effect on FAS mRNA expression levels in adipose tissue of KK-Ay diabetic mouse model at 0.4 to 1.1 mg added daily to normal chow pellets for 10 weeks by qRT-PCR analysis; format: functional, organism-based
[23] = species on record: Mus musculus; assay: Effect on SOD1 mRNA expression levels in liver of KK-Ay diabetic mouse model at 0.4 to 1.1 mg added daily to normal chow pellets for 10 weeks by qRT-PCR analysis; format: functional, organism-based
[24] = species on record: Mus musculus; assay: Antidiabetic activity in KK-Ay diabetic mouse model assessed as reduction in plasma glucagon levels at 1.1 mg added daily to normal chow pellets for 10 weeks relative to control by radioimmunoassay; format: functional; parameters: scale not given: the % may be the effect or the level left
[25] = species on record: Mus musculus; assay: Effect on Adipor1 mRNA expression levels in adipose tissue of KK-Ay diabetic mouse model at 0.4 to 1.1 mg added daily to normal chow pellets for 10 weeks by qRT-PCR analysis; format: functional, organism-based
[26] = species on record: Mus musculus; assay: Effect on FAS mRNA expression levels in liver of KK-Ay diabetic mouse model at 0.4 to 1.1 mg added daily to normal chow pellets for 10 weeks by qRT-PCR analysis; format: functional, organism-based
[27] = species on record: Mus musculus; assay: Effect on Gcgr mRNA expression levels in adipose tissue of KK-Ay diabetic mouse model at 0.4 to 1.1 mg added daily to normal chow pellets for 10 weeks by qRT-PCR analysis; format: functional, organism-based
[28] = species on record: Mus musculus; assay: Effect on Hprt1 mRNA expression levels in liver of KK-Ay diabetic mouse model at 0.4 to 1.1 mg added daily to normal chow pellets for 10 weeks by qRT-PCR analysis; format: functional, organism-based
[29] = species on record: Mus musculus; assay: Effect on LXRalpha mRNA expression levels in adipose tissue of KK-Ay diabetic mouse model at 0.4 to 1.1 mg added daily to normal chow pellets for 10 weeks by qRT-PCR analysis; format: functional, organism-based
[30] = species on record: Mus musculus; assay: Toxicity in KK-Ay diabetic mouse model assessed as effect on body weight at 1.1 mg added daily to normal chow pellets for 4 weeks; format: organism-based; settings: in vivo, po, 672 h
[31] = species on record: Mus musculus; assay: Effect on Abca1 mRNA expression levels in muscle of KK-Ay diabetic mouse model at 0.4 to 1.1 mg added daily to normal chow pellets for 10 weeks by qRT-PCR analysis; format: functional, organism-based
[32] = species on record: Mus musculus; assay: Effect on PKCdelta mRNA expression levels in muscle of KK-Ay diabetic mouse model at 0.4 to 1.1 mg added daily to normal chow pellets for 10 weeks by qRT-PCR analysis; format: functional, organism-based

C[C@@]12CCc3occc3[C@H]1CC[C@@]13C[C@H](CC[C@H]12)[C@@](O)(CO)C3
Activity [1]: inactive | Activity [2]: inactive | Activity [3]: inactive | Activity [4]: 44% | Activity [5]: inactive | Activity [6]: inactive | Activity [7]: inactive | Activity [8]: inactive | Activity [9]: inactive | Activity [10]: 67% | Activity [11]: inactive | Activity [12]: inactive | Activity [13]: inactive | Activity [14]: Active | Activity [15]: inactive | Activity [16]: inactive | Activity [17]: 19.7 mmol/L | Activity [18]: inactive | Activity [19]: 17.3 mmol/L | Activity [20]: inactive | Activity [21]: inactive | Activity [22]: inactive | Activity [23]: inactive | Activity [24]: 20% | Activity [25]: inactive | Activity [26]: inactive | Activity [27]: inactive | Activity [28]: inactive | Activity [29]: inactive | Activity [30]: Non-Toxic | Activity [31]: inactive | Activity [32]: inactive
